# Data reported in US20260265259A1, “SUBSTITUTED 6-IMIDAZOPYRIDAZINE IL-17A MODULATORS AND USES THEREOF” (DICE ALPHA, INC., priority 2023, published 2026).
# pIC50: −log10 of the molar value.
# Tested on: IL-17A/A
# Assay: IL-17A/A HEK-Blue cell assay
# Assay type: cell-based
# Conditions: HEK-Blue, 20 h, IL-17A/A inhibition, HEK-Blue IL-17A reporter cell line, IL17A/A 5 ng/mL, SEAP read at A630, read-out: AA IC50
# Experimental: The HEK-Blue IL-17A reporter cell line (Fisher #NC1408637) was used for cell-based IL-17A/A inhibition assays. Cells were grown and prepared for assays according to the manufacturer's instructions. This cell line consists of HEK 293 cells that were designed to expressed IL-17RA, IL-17RC, and the Act1 adapter molecule, the combination of which, when stimulated by IL-17A/A or IL17A/F activates a NFκB promoter and drives expression of the recombinant Secreted Alkaline Phosphatase (SEAP) gene. Media from the cells is then added to a development reagent (Quanti-Blue Substrate, Fisher #NC9711613), and read at A630.
# Compounds were dispensed in DMSO to an empty clear 384-well tissue culture plate in a titration ranging from 10 μM to 27 pM, with DMSO added to every well to a final concentration of 0.1%. Cells were then added to the plate (45 μL/well at a concentration of 280,000 cells/mL). IL17A/A (Genscript #Z03228) or IL17A/F (R&D Systems) was added to the plate to a final concentration of 5 ng/mL and a final well volume of 50 μL. The cells, compound, and IL-17A/A or IL17A/F were then incubated for 20 hours before media was removed for SEAP analysis. The resulting inhibition curve was then analyzed using Dotmatics' integrated 4-parameter fit screening protocol to generate IC50 values.
row,SMILES,pIC50
1,CCn1nccc1C(=O)N[C@H](c1cn2nc(C[C@H]3C[C@@H](C(F)(F)F)CNC3=O)c(C3CCOC3)cc2n1)[C@@H]1CCCC(F)(F)C1 (stereo partly drawn) [Compound 68],> 7.00
2,CCn1nccc1C(=O)N[C@H](c1cn2nc(C[C@H]3C[C@@H](C(F)(F)F)CNC3=O)c(N3CC(F)(F)C3)cc2n1)C1CCC(F)(F)CC1 [Compound 41],6.00 to 7.00
3,CCn1nccc1C(=O)N[C@H](c1cn2nc(C[C@@H]3C[C@@H](C(F)(F)F)CNC3=O)c(-c3cccnc3)cc2n1)C1CCC(F)(F)CC1 [Compound 8],6.00 to 7.00
4,CCn1nccc1C(=O)N[C@H](c1cn2nc(C[C@H]3C[C@@H](C(F)(F)F)CNC3=O)c(C3=CCOC3)cc2n1)C1CCC(F)(F)CC1 [Compound 58],6.00 to 7.00
5,CCn1nccc1C(=O)N[C@H](c1cn2nc(C[C@H]3C[C@@H](C(F)(F)F)CNC3=O)c(C3CCCOC3)cc2n1)C1CCC(F)(F)CC1 (stereo partly drawn) [Compound 7],6.00 to 7.00
6,O=C(N[C@H](c1cn2nc(C[C@H]3C[C@@H](C(F)(F)F)CNC3=O)c(C3CCOCC3)cc2n1)C1CCC(F)(F)CC1)c1nonc1C1CC1 [Compound 54],> 7.00
7,O=C(N[C@H](c1cn2nc(C[C@H]3C[C@@H](C(F)(F)F)CNC3=O)c(C3CCOC3)cc2n1)[C@H]1CCCC(F)(F)C1)c1nonc1C1CC1 (stereo partly drawn) [Compound 69],> 7.00
8,O=C(N[C@H](c1cn2nc(C[C@H]3C[C@@H](C(F)(F)F)CNC3=O)c(C3CCOCC3)cc2n1)[C@@H]1CCCC(F)(F)C1)c1nonc1C1CC1 [Compound 59],> 7.00
9,CC(C)n1nccc1C(=O)N[C@H](c1cn2nc(C[C@H]3C[C@@H](C(F)(F)F)CNC3=O)c(N3CCOCC3)cc2n1)[C@H]1CCCC(F)(F)C1 [Compound 27],> 7.00
10,CCn1nccc1C(=O)N[C@H](c1cn2nc(C[C@H]3C[C@@H](C(F)(F)F)CNC3=O)c(C3CCCCO3)cc2n1)C1CCC(F)(F)CC1 (stereo partly drawn) [Compound 84],> 7.00
11,CCn1nccc1C(=O)N[C@H](c1cn2nc(C[C@H]3C[C@@H](C(F)(F)F)CNC3=O)c(-c3cncnc3)cc2n1)C1CCC(F)(F)CC1 [Compound 4],6.00 to 7.00
12,CCn1nccc1C(=O)N[C@H](c1cn2nc(C[C@H]3C[C@@H](C(F)(F)F)CNC3=O)c(C3COC3)cc2n1)C1CCC(F)(F)CC1 [Compound 5],> 7.00
13,CCn1nccc1C(=O)N[C@H](c1cn2nc(C[C@H]3C[C@@H](C(F)(F)F)CNC3=O)c(N3CC(OC)C3)cc2n1)C1CCC(F)(F)CC1 [Compound 79],> 7.00
14,CCn1nccc1C(=O)N[C@H](c1cn2nc(C[C@H]3C[C@@H](C(F)(F)F)CNC3=O)c(N3CCOC4(CC4)C3)cc2n1)C1CCC(F)(F)CC1 [Compound 81],> 7.00
15,O=C(N[C@H](c1cn2nc(CC3C[C@@H](C(F)(F)F)CNC3=O)c(N3CCOCC3)cc2n1)C1CCC(F)(F)CC1)c1nonc1C1CC1 (stereo partly drawn) [Compound 15],> 7.00
16,CCn1nccc1C(=O)N[C@H](c1cn2nc(C[C@H]3C[C@@H](C(F)(F)F)CNC3=O)c(N3CCCCC3)cc2n1)C1CCC(F)(F)CC1 [Compound 18],> 7.00
17,O=C(N[C@H](c1cn2nc(C[C@H]3C[C@@H](C(F)(F)F)CNC3=O)c(N3CCOCC3)cc2n1)[C@H]1CCCC(F)(F)C1)c1nonc1C1CC1 [Compound 29],> 7.00
18,CCn1nccc1C(=O)N[C@H](c1cn2nc(C[C@@H]3C[C@@H](C(F)(F)F)CNC3=O)c(C3CCOC3)cc2n1)C1CCC(F)(F)CC1 (stereo partly drawn) [Compound 10],6.00 to 7.00
19,O=C(N[C@H](c1cn2nc(C[C@H]3C[C@H](C(F)(F)F)CNC3=O)c(N3CCOCC3)cc2n1)C1CCC(F)(F)CC1)c1nonc1C1CC1 [Compound 38],> 7.00

# The remaining lines, values ahead:
row,pIC50,SMILES
1,> 7.00,"CCn1nccc1C(=O)N[C@H](c1cn2nc(C[C@H]3C[C@@H](C(F)(F)F)CNC3=O)c(CN(C)C3COC3)cc2n1)C1CCC(F)(F)CC1 [Compound 114, N—((S)-(4,4-difluorocyclohexyl)(7-((methyl(oxetan-3-yl)amino)methyl)-6-(((3R,5R)-2-oxo-5-(trifluoromethyl)piperidin-3-yl)methyl)imidazo[1,2-b]pyridazin-2-yl)methyl)-1-ethyl-1H-pyrazole-5-carboxamide]"
2,> 7.00,"CCn1nccc1C(=O)N[C@H](c1cn2nc(C[C@H]3C[C@@H](C(F)(F)F)CNC3=O)c(N3CCN4CCOC[C@@H]4C3)cc2n1)C1CCC(F)(F)CC1 [Compound 104, N—((S)-(4,4-difluorocyclohexyl)(7-((S)-hexahydropyrazino[2,1-c][1,4]oxazin-8(1H)-yl)-6-(((3R,5R)-2-oxo-5-(trifluoromethyl)piperidin-3-yl)methyl)imidazo[1,2-b]pyridazin-2-yl)methyl)-1-ethyl-1H-pyrazole-5-carboxamide]"
3,> 7.00,O=C(N[C@H](c1cn2nc(C[C@H]3C[C@@H](C(F)(F)F)CNC3=O)c(C3CCOCC3)cc2n1)C1CCC(F)(F)CC1)c1ccnn1C1CC1 [Compound 91]
4,> 7.00,"CCn1nccc1C(=O)N[C@H](c1cn2nc(C[C@H]3C[C@@H](C(F)(F)F)CNC3=O)c(CN3CCCCC3)cc2n1)C1CCC(F)(F)CC1 [Compound 107, N—((S)-(4,4-difluorocyclohexyl)(6-(((3R,5R)-2-oxo-5-(trifluoromethyl)piperidin-3-yl)methyl)-7-(piperidin-1-ylmethyl)imidazo[1,2-b]pyridazin-2-yl)methyl)-1-ethyl-1H-pyrazole-5-carboxamide]"
5,> 7.00,CCn1nccc1C(=O)N[C@H](c1cn2nc(C[C@H]3C[C@@H](C(F)(F)F)CNC3=O)c(C3CCOCC3)cc2n1)C1CCC(C)CC1 (stereo partly drawn) [Compound 86]
6,6.00 to 7.00,"CCn1nccc1C(=O)N[C@H](c1cn2nc(C[C@H]3C[C@@H](C)CNC3=O)c(C3CCOCC3)cc2n1)C1CCC(F)(F)CC1 [Compound 100, N—((1S)-(4,4-difluorocyclohexyl)(6-(((5R)-5-methyl-2-oxopiperidin-3-yl)methyl)-7-(tetrahydro-2H-pyran-4-yl)imidazo[1,2-b]pyridazin-2-yl)methyl)-1-ethyl-1H-pyrazole-5-carboxamide]"
7,> 7.00,"CCn1nccc1C(=O)N[C@H](c1cn2nc(C[C@H]3C[C@@H](C(F)(F)F)CNC3=O)c([C@@H](C)N(C)CC(F)(F)F)cc2n1)C1CCC(F)(F)CC1 [Compound 110, N-((1S)-(4,4-difluorocyclohexyl)(7-(1-(methyl(2,2,2-trifluoroethyl)amino)ethyl)-6-(((3R,5R)-2-oxo-5-(trifluoromethyl)piperidin-3-yl)methyl)imidazo[1,2-b]pyridazin-2-yl)methyl)-1-ethyl-1H-pyrazole-5-carboxamide]"
8,> 7.00,"CCn1nccc1C(=O)N[C@H](c1cn2nc(C[C@H]3C[C@@H](C(F)(F)F)CNC3=O)c(CN(CC(F)(F)F)C3CC3)cc2n1)C1CCC(F)(F)CC1 [Compound 117, N—((S)-(7-((cyclopropyl(2,2,2-trifluoroethyl)amino)methyl)-6-(((3R,5R)-2-oxo-5-(trifluoromethyl)piperidin-3-yl)methyl)imidazo[1,2-b]pyridazin-2-yl)(4,4-difluorocyclohexyl)methyl)-1-ethyl-/H-pyrazole-5-carboxamide]"
9,> 7.00,"CCn1nccc1C(=O)N[C@H](c1cn2nc(C[C@@H]3C[C@@H](C)CNC3=O)c(C3CCOCC3)cc2n1)C1CCC(F)(F)CC1 [Compound 101, N—((1S)-(4,4-difluorocyclohexyl)(6-(((5R)-5-methyl-2-oxopiperidin-3-yl)methyl)-7-(tetrahydro-2H-pyran-4-yl)imidazo[1,2-b]pyridazin-2-yl)methyl)-1-ethyl-1H-pyrazole-5-carboxamide]"
10,6.00 to 7.00,"CCn1nccc1C(=O)N[C@H](c1cn2nc(C[C@H]3C[C@H](C)CNC3=O)c(C3CCOCC3)cc2n1)C1CCC(F)(F)CC1 [Compound 102, N—((1S)-(4,4-difluorocyclohexyl)(6-(((5S)-5-methyl-2-oxopiperidin-3-yl)methyl)-7-(tetrahydro-2H-pyran-4-yl)imidazo[1,2-b]pyridazin-2-yl)methyl)-1-ethyl-1H-pyrazole-5-carboxamide]"
11,> 7.00,CC(C)n1ncnc1C(=O)N[C@H](c1cn2nc(C[C@H]3C[C@@H](C(F)(F)F)CNC3=O)c(C3CCOCC3)cc2n1)C1CCC(F)(F)CC1 [Compound 90]

# Same assay, conditions: IL-17A/A inhibition, HEK-Blue IL-17A reporter cell line, IL17A/A 5 ng/mL, 20 hours, SEAP read at A630; read-out: AA IC50
row,SMILES,pIC50
1,CCn1nccc1C(=O)N[C@H](c1cn2nc(C[C@@H]3C[C@@H](C(F)(F)F)CNC3=O)c(C3CCOC3)cc2n1)C1CCC(F)(F)CC1 (stereo partly drawn) [Compound 11],6.00 to 7.00
2,CCn1nccc1C(=O)N[C@H](c1cn2nc(C[C@H]3C[C@@H](C(F)(F)F)CNC3=O)c(C3CCOC3)cc2n1)[C@H]1CCCC(F)(F)C1 (stereo partly drawn) [Compound 71],> 7.00
3,CCn1nccc1C(=O)N[C@H](c1cn2nc(C[C@H]3C[C@@H](C(F)(F)F)CNC3=O)c(C3CCCOC3)cc2n1)C1CCC(F)(F)CC1 (stereo partly drawn) [Compound 13],> 7.00

# Next, values leading:
row,pIC50,SMILES
1,> 7.00,CCn1nccc1C(=O)N[C@H](c1cn2nc(C[C@H]3C[C@@H](C(F)(F)F)CNC3=O)c(C3COCCO3)cc2n1)C1CCC(F)(F)CC1 (stereo partly drawn) [Compound 95]
2,> 7.00,CCn1nccc1C(=O)N[C@H](c1cn2nc(C[C@H]3C[C@@H](C(F)(F)F)CNC3=O)c(C3CCOC(C)(C)C3)cc2n1)C1CCC(F)(F)CC1 (stereo partly drawn) [Compound 88]
3,> 7.00,O=C(N[C@H](c1cn2nc(C[C@H]3C[C@@H](C(F)(F)F)CNC3=O)c(C3CCOCC3)cc2n1)C1CCC(F)(F)CC1)c1ccnn1C1CC1(F)F (stereo partly drawn) [Compound 93]
